The record followed here is patent publication US11964988B2, “Fused heterocyclic compounds as RET kinase inhibitors” (ARRAY BIOPHARMA INC., priority 2018, dated 2024).

SMILES strings stand for the structures. Changes are numbered by the printed parent chain.

The target of assay [1] is T1, HEK-293 cells expressing a G810R mutant RET Kif5b-RET fusion protein (Homo sapiens, UniProt P07949, G810R).
T1 construct: KIF5B (N-terminal portion incl. coiled-coil); expressed in transfected cells; host or cells: HEK-293; the other entry of the earlier key: KIF5B (P33176, Kinesin-1 heavy chain)
T1 sequence (P07949 713-1063 G810R limits assumed): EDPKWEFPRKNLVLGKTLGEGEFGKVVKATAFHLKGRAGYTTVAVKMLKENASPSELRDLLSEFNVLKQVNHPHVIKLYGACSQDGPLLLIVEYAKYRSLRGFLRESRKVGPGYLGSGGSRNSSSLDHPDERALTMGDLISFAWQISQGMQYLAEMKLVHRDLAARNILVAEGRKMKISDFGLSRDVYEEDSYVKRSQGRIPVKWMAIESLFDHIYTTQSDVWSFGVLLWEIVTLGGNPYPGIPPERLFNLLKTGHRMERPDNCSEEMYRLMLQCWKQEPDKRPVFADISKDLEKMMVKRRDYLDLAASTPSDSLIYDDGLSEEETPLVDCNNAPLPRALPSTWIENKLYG
The assay can be described thus: RET G810R Mutant Cell Assay (phospho-RET Tyr1062). Type of assay: cell-based. The settings on record: HEK-293 Kif5b-RET G810R, 1 hour incubation, phospho-RET normalized to GAPDH. In outline:
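Signals came from in-cell immunostaining of fixed, methanol-permeabilized HEK-293 fusion-expressing cells exposed 1 h to compound in DMEM with 0.5% DMSO.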

In assay [2] the target is RET kinase Wild Type (Homo sapiens, UniProt P07949). Nature of the assay: biochemical.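 Further: HTRF kinase activity assay on RET enzyme, 1 h reaction at 22 °C, dual-wavelength readout as percent of control, DMSO-only wells as 100%, pre-quenched reactions as 0%.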
Method: (§1) The potency of compounds inhibiting several different RET kinase forms (Wild Type, V804M, G810R, & G810S) were determined using CisBio's HTRF® KinEASE™-TK assay technology. […] After a 1 hour incubation at 22° C., the extent of reaction was determined using a PerkinElmer EnVision multimode plate reader via HTRF dual wavelength detection, and the percent of control (POC) was calculated using a ratiometric emission factor. One hundred POC was determined using DMSO only samples (no compound present), and 0 POC was determined using pre-quenched control reactions.
For assay [3], the target named is G810S mutant RET kinase (Homo sapiens, UniProt P07949, G810S). The assay can be described thus: biochemical.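 Further: HTRF KinEASE-TK kinase assay with recombinant enzyme, 1 h at 22 °C, dual-wavelength ratiometric read-out, percent of control (DMSO-only = 100, pre-quenched reaction = 0).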
Method: as §1
The potency of a compound inhibiting G810R or G810S mutant RET kinase was determined using CisBio's HTRF® KinEASE™-TK assay technology. The assays contained G810R or G810S mutant RET produced at Array Biopharma, Inc. (1 nM enzyme). […] After a 1-h incubation at 22° C., the extent of reaction was determined using a PerkinElmer EnVision multimode plate reader via HTRF dual wavelength detection, and the percent of control (POC) was calculated using a ratiometric emission factor. One hundred POC was determined using no test compounds, and 0 POC was determined using pre-quenched control reactions.
For assay [4], the target named is G810R mutant RET kinase (Homo sapiens, UniProt P07949, G810R). Nature of the assay: biochemical.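 Further: HTRF KinEASE-TK enzymatic assay with 1 nM recombinant RET G810R, 1 h at 22 °C, dual-wavelength ratiometric readout, 100% control without compound, 0% from pre-quenched reactions.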
The target of assay [5] is T2, HEK-293 cells expressing a G810S mutant RET Kif5b-RET fusion protein (Homo sapiens, UniProt P07949, G810S).
T2 construct: KIF5B (N-terminal portion incl. coiled-coil); expressed in transfected cells; host or cells: HEK-293
T2 sequence (P07949 713-1063 G810S limits assumed): T1 sequence (P07949 713-1063 G810R limits assumed) with R98S
Nature of the assay: RET G810S Mutant Cell Assay (phospho-RET Tyr1062). It counts as cell-based. The conditions noted are these: HEK-293 Kif5b-RET G810S, 1 hour incubation, phospho-RET normalized to GAPDH. On the procedure: The cellular potency of compounds inhibiting RET kinase were determined in HEK-293 cells expressing a G810R or G810S mutant RET Kif5b-RET fusion protein. Briefly, HEK-293 cells expressing a G810R or G810S mutant RET Kif5b-RET fusion protein were plated at 50K cells/well in 96 well poly-D-Lysine coated plates the day prior to the assay. The cells were incubated for 1 hour with test compound in DMEM (Dulbecco's Modified Eagle Medium) at a final DMSO concentration of 0.5%. […] After 1 hour the media was removed, the cells were fixed with 3.8% formaldehyde for 20 min, washed with PBS, and permeabilized for 10 min with 100% methanol. The plates were then washed with PBS-0.05% Tween20, and blocked with LI-COR Blocking solution (LI-COR Catalog No. 927-40000) for 1 hour. Plates were washed with PBS-0.05% Tween20, then incubated with anti-phospho-RET (Tyr1062) (Santa Cruz Catalog No. sc-20252-R) antibody and anti-GAPDH (Millipore Catalog No. MAB374) antibody for 2 hours. The plates were washed with PBS-0.05% Tween20, and incubated with anti-rabbit 680 (Molecular Probes Catalog No. A21109) and anti-mouse 800 (LI-COR Catalog No. 926-32210) secondary antibodies for 1 hour. All antibodies were diluted in LI-COR Block containing 0.05% Tween. The plates were washed with PBS-0.05% Tween20,100 μL PBS was added to each well, and the plates were read on a LI-COR Aerius fluorescent plate reader. The phospho-RET signal was normalized to the GAPDH signal. […] The POC values are fit to a 4 parameter logistic curve. The IC50 value is the point where the curve crosses 50 POC.

Assay [6] concerns the target T3, HEK-293 cells expressing a Kif5b-RET fusion protein (Homo sapiens, UniProt P07949).
T3 construct: KIF5B (N-terminal portion incl. coiled-coil); expressed in transfected cells; host or cells: HEK-293; the other entry of the earlier key: KIF5B (P33176, Kinesin-1 heavy chain)
T3 sequence (P07949 713-1063 limits assumed): T1 sequence (P07949 713-1063 G810R limits assumed) with R98G
Nature of the assay: RET Cell Assay (phospho-RET Tyr1062). It counts as cell-based. The settings on record: HEK-293 Kif5b-RET, 1 hour incubation, phospho-RET normalized to GAPDH; read-out: KIF5B-RET pTYR1062 Cell IC50. In outline: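 Phospho-RET (Tyr1062) to GAPDH ratio read by in-cell fluorescent immunodetection after 1 hour compound exposure in DMEM, 0.5% DMSO. Cells: HEK-293 carrying Kif5b-RET fusion. POC data fit to a 4-parameter logistic curve, IC50 taken at 50 POC.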

In assay [7] the target is RET kinase V804M (Homo sapiens, UniProt P07949, V804M). Nature of the assay: RET Enzyme Assay (CisBio HTRF KinEASE-TK), V804M. It counts as biochemical. The settings on record: read-out: RET V804M Enz FRET IC50. In general terms: Time-resolved FRET reads energy transfer from a long-lived donor to a nearby acceptor.
Sequence of RET kinase V804M (P07949 29-1114 V804M): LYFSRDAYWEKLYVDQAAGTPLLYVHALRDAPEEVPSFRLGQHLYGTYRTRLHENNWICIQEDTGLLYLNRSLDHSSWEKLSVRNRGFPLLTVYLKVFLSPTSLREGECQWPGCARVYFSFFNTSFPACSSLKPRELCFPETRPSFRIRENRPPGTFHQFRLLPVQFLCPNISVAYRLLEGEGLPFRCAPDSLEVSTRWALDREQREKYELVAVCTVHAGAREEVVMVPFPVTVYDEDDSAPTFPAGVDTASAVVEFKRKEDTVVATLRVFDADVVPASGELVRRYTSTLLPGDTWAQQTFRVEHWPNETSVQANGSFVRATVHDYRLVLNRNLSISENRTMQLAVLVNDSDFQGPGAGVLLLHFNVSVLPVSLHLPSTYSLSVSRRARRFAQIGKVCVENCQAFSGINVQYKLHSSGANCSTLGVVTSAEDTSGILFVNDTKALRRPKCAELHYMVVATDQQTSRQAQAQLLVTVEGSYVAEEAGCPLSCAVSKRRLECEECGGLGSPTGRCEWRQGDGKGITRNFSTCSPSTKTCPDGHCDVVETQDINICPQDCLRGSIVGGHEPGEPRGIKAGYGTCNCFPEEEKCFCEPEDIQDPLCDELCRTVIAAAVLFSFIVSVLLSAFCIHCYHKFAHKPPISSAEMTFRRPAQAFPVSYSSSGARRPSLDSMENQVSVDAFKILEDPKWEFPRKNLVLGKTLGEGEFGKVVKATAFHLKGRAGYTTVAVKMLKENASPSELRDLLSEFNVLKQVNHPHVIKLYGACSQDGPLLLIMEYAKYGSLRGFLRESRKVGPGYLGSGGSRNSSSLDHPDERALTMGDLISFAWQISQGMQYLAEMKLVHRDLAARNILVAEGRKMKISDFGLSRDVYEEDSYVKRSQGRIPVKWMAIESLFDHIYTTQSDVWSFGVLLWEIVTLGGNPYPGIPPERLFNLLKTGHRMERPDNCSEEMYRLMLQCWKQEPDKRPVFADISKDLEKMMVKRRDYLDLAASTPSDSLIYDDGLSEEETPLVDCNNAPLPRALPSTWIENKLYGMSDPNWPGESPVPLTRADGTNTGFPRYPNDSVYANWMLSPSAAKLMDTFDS

Sequence of G810R mutant RET kinase (P07949 29-1114 G810R): as the sequence (P07949 29-1114 V804M) above, with M776V, G782R counted along it
Sequence of RET kinase Wild Type (P07949 29-1114): as the sequence (P07949 29-1114 V804M) above, with M776V counted along it
Sequence of G810S mutant RET kinase (P07949 29-1114 G810S): as the sequence (P07949 29-1114 V804M) above, with M776V, G782S counted along it

For the compound `CC(C)n1c2c(c3c(N)ncnc31)-c1cc3c(F)cccc3n1C(=O)NC2` [Example 83, 1-amino-13-fluoro-5-isopropyl-6,7-dihydropyrimido[5″,4″:4′,5′]pyrrolo[2′,3′: 5,6][1,3]diazepino[1,7-a]indol-8(5H)-one], the IC50 (as a rule, the point on the concentration scale where inhibition reaches its midpoint) in assay [1] was found to be 1060 nM; in assay [2], 63 nM; in assay [3], 97 nM; in assay [4], 58 nM; in assay [5], 812 nM; in assay [6], 293 nM.

Consider `CC(C)n1c2c(c3c(N)ncnc31)-c1cc3ccc(C(=O)NC4(C)CC4)cc3n1CCC2` [Example 97, 1-amino-5-isopropyl-N-(1-methylcyclopropyl)-5,6,7,8-tetrahydropyrimido[5″,4″:4′,5′]pyrrolo[3′,2′: 3,4]azepino[1,2-a]indole-11-carboxamide], for which the IC50 in assay [1] was found to be 47 nM; in assay [7], 4460 nM; in assay [2], 73 nM; in assay [3], 457 nM; in assay [4] it was 478 nM; in assay [5], 47 nM. For the same compound, the IC50 in assay [6] worked out at 26 nM.

In the case of `COCCn1ccc(NC(=O)c2ccc3cc4n(c3c2)CCCc2c-4c3c(N)ncnc3n2C(C)C)n1` [Example 96, 1-amino-5-isopropyl-N-(1-(2-methoxyethyl)-1H-pyrazol-3-yl)-5,6,7,8-tetrahydropyrimido[5″,4″:4′,5′]pyrrolo[3′,2′: 3,4]azepino[1,2-a]indole-11-carboxamide], the IC50 in assay [1] was determined as 142 nM; in assay [2], 27 nM; in assay [3], 393 nM; in assay [4], 187 nM; in assay [5], 116 nM; in assay [6] it was 85 nM.

For the compound `CC(=O)Nc1ccc2cc3n(c2c1)CCCc1c-3c2c(N)ncnc2n1C(C)C` [Example 139, N-(1-amino-5-isopropyl-5,6,7,8-tetrahydropyrimido[5″,4″:4′,5′]pyrrolo[3′,2′:3,4]azepino[1,2-a]indol-11-yl)acetamide], the IC50 amounted to 49 nM in assay [1]; 75 nM in assay [2]; 474 nM in assay [3]; 1030 nM in assay [4]; 36 nM in assay [5]; 16 nM in assay [6].

For `CC(C)n1c2c(c3c(N)ncnc31)-c1cc3cc(Cl)ccc3n1C(=O)NC2` [Example 77, 1-amino-12-chloro-5-isopropyl-6,7-dihydropyrimido[5″,4″:4′,5′]pyrrolo[2′,3′: 5,6][1,3]diazepino[1,7-a]indol-8(5H)-one], the IC50 in assay [1] worked out at 89 nM; in assay [2], 27 nM; in assay [3] it was 73 nM; in assay [4], 135 nM; in assay [5], 32 nM; in assay [6], 13 nM.

Regarding `CC(C)n1c2c(c3c(N)ncnc31)-c1cc3ccc(C(=O)NC4CC4)cc3n1C(=O)NC2` [Example 72, 1-amino-N-cyclopropyl-5-isopropyl-8-oxo-5,6,7,8-tetrahydropyrimido[5″,4″:4′,5′]pyrrolo[2′,3′:5,6][1,3]diazepino[1,7-a]indole-11-carboxamide], the IC50 was found to be 16200 nM in assay [1]; 512 nM in assay [2]; 2630 nM in assay [3]; 3090 nM in assay [4]; 6350 nM in assay [5]; 3960 nM in assay [6].

With `CC(C)n1c2c(c3c(N)ncnc31)-c1cc3ccc(C(=O)Nc4ccn(CCC(F)(F)F)n4)cc3n1CCC2` [Example 101, 1-amino-5-isopropyl-N-(1-(3,3,3-trifluoropropyl)-1H-pyrazol-3-yl)-5,6,7,8-tetrahydropyrimido[5″,4″:4′,5′]pyrrolo[3′,2′: 3,4]azepino[1,2-a]indole-11-carboxamide], the IC50 amounted to 75 nM in assay [1]; 135 nM in assay [2]; 805 nM in assay [3]; 1420 nM in assay [4]; 62 nM in assay [5]; 43 nM in assay [6].

In the case of `CC(C)n1c2c(c3c(N)ncnc31)-c1cc3ccc(C#N)cc3n1C(=O)NC2` [Example 76, 1-amino-5-isopropyl-8-oxo-5,6,7,8-tetrahydropyrimido[5″,4″:4′,5′]pyrrolo[2′,3′:5,6][1,3]diazepino[1,7-a]indole-11-carbonitrile], the IC50 in assay [1] turned out to be 845 nM; in assay [2], 117 nM; in assay [3] it was 292 nM; in assay [4] it was 118 nM; in assay [5], 570 nM; in assay [6] it was 143 nM.

Regarding `COC(=O)c1ccc2cc3n(c2c1)C(=O)NCc1c-3c2c(N)ncnc2n1C(C)C` [Example 70, Methyl 1-amino-5-isopropyl-8-oxo-5,6,7,8-tetrahydropyrimido[5″,4″:4′,5′]pyrrolo[2′,3′:5,6][1,3]diazepino[1,7-a]indole-11-carboxylate], the IC50 was 607 nM in assay [1]; 92 nM in assay [2]; 312 nM in assay [3]; 183 nM in assay [4]; 388 nM in assay [5]; 166 nM in assay [6].

`CC(C)n1c2c(c3c(N)ncnc31)-c1noc(C3CC3)c1S(=O)(=O)NC2` [Example 21, 11-amino-3-cyclopropyl-7-isopropyl-6,7-dihydro-5H-isoxazolo[3,4-f]pyrimido[5′,4′:4,5]pyrrolo[2,3-d][1,2]thiazepine 4,4-dioxide 2,2,2-trifluoroacetate]: the half-maximal inhibitory concentration (IC50) amounted to 87 nM in assay [1]; 44 nM in assay [7]; 9 nM in assay [2]; 31 nM in assay [4]; 83 nM in assay [5]; 28 nM in assay [6].
